Test results from PubChem BioAssay (NCI).
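Cultured in 96-well plates, cells were exposed to test compound for 48 hours across five concentrations. At the TGI there is no net growth.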

How the values were obtained:
Assay in all cases: NCI-60 cell line screen, 48 h
OVCAR-8 ovarian = test system: OVCAR-8 ovarian
CAKI-1 renal = test system: CAKI-1 renal
OVCAR-4 ovarian = test system: OVCAR-4 ovarian
MALME-3M melanoma = test system: MALME-3M melanoma
SR leukemia = test system: SR leukemia
SNB-19 CNS = test system: SNB-19 CNS
A549 NSCLC = test system: A549 NSCLC
NCI-H23 lung = test system: NCI-H23 lung
SK-MEL-5 melanoma = test system: SK-MEL-5 melanoma
DLD-1 colon = test system: DLD-1 colon
A498 renal = test system: A498 renal
KM12 colon = test system: KM12 colon
SNB-75 CNS = test system: SNB-75 CNS
LXFL 529 NSCLC = test system: LXFL 529 NSCLC
ACHN renal = test system: ACHN renal
M14 melanoma = test system: M14 melanoma
SK-MEL-2 melanoma = test system: SK-MEL-2 melanoma
SW-620 colon = test system: SW-620 colon
HCT-116 colon = test system: HCT-116 colon
NCI-H460 lung = test system: NCI-H460 lung
UACC-62 melanoma = test system: UACC-62 melanoma
RPMI-8226 leukemia = test system: RPMI-8226 leukemia
SF-295 CNS = test system: SF-295 CNS
MOLT-4 leukemia = test system: MOLT-4 leukemia
CCRF-CEM leukemia = test system: CCRF-CEM leukemia
HCT-15 colon = test system: HCT-15 colon
U251 CNS = test system: U251 CNS
HOP-62 NSCLC = test system: HOP-62 NSCLC
786-0 renal = test system: 786-0 renal
SNB-78 CNS = test system: SNB-78 CNS
UO-31 renal = test system: UO-31 renal
K-562 leukemia = test system: K-562 leukemia
UACC-257 melanoma = test system: UACC-257 melanoma
NCI-H522 lung = test system: NCI-H522 lung
DMS 114 small cell lung = test system: DMS 114 small cell lung
HT29 colon = test system: HT29 colon
KM20L2 colon = test system: KM20L2 colon
NCI-H226 lung = test system: NCI-H226 lung
SK-OV-3 ovarian = test system: SK-OV-3 ovarian
COLO 205 colon = test system: COLO 205 colon
OVCAR-3 ovarian = test system: OVCAR-3 ovarian
OVCAR-5 ovarian = test system: OVCAR-5 ovarian
LOX IMVI melanoma = test system: LOX IMVI melanoma
M19-MEL melanoma = test system: M19-MEL melanoma
SN12C renal = test system: SN12C renal
SF-539 CNS = test system: SF-539 CNS
TK-10 renal = test system: TK-10 renal
HOP-92 NSCLC = test system: HOP-92 NSCLC
HL-60(TB) leukemia = test system: HL-60(TB) leukemia
IGROV1 ovarian = test system: IGROV1 ovarian
SK-MEL-28 melanoma = test system: SK-MEL-28 melanoma
RXF-631 renal = test system: RXF-631 renal
SF-268 CNS = test system: SF-268 CNS
HOP-18 NSCLC = test system: HOP-18 NSCLC
DMS 273 small cell lung = test system: DMS 273 small cell lung
EKVX NSCLC = test system: EKVX NSCLC
XF 498 CNS = test system: XF 498 CNS
RXF 393 renal = test system: RXF 393 renal
HCC-2998 colon = test system: HCC-2998 colon

Work on `CCN(CC)CCNc1ccc2nnn3c4ccc(C)cc4c(=O)c1c23` yielded a TGI (OVCAR-8 ovarian) of 20.9 µM, a TGI (CAKI-1 renal) of 34.9 µM and a TGI (OVCAR-4 ovarian) of 25.2 µM. For the same compound, the TGI (MALME-3M melanoma) was 25.7 µM, the TGI (SR leukemia) was 13.1 µM and the TGI (SNB-19 CNS) was 27.4 µM. The TGI (A549 NSCLC) was 19.3 µM, the TGI (NCI-H23 lung) was 24.7 µM and the TGI (SK-MEL-5 melanoma) was 22.5 µM. It also gave a TGI (DLD-1 colon) of 25.9 µM, a TGI (A498 renal) of 29.3 µM and a TGI (KM12 colon) of 16.9 µM. It also gave a TGI (SNB-75 CNS) of 23.2 µM, a TGI (LXFL 529 NSCLC) of 24.5 µM and a TGI (ACHN renal) of 21.3 µM. The TGI (M14 melanoma) was 26.4 µM, the TGI (SK-MEL-2 melanoma) was 27.1 µM and the TGI (SW-620 colon) was 17.2 µM. It also gave a TGI (HCT-116 colon) of 15 µM, a TGI (NCI-H460 lung) of 13.9 µM and a TGI (UACC-62 melanoma) of 27.1 µM. It also gave a TGI (RPMI-8226 leukemia) of 21.6 µM, a TGI (SF-295 CNS) of 18 µM and a TGI (MOLT-4 leukemia) of 12.2 µM. For the same compound, the TGI (CCRF-CEM leukemia) was 25.6 µM, the TGI (HCT-15 colon) was 22.4 µM and the TGI (U251 CNS) was 24.7 µM. For the same compound, the TGI (HOP-62 NSCLC) was 28.9 µM, the TGI (786-0 renal) was 18.6 µM and the TGI (SNB-78 CNS) was 26.1 µM. For the same compound, the TGI (UO-31 renal) was 22.2 µM, the TGI (K-562 leukemia) was 25.9 µM and the TGI (UACC-257 melanoma) was 26.5 µM. The TGI (NCI-H522 lung) was 20.5 µM, the TGI (DMS 114 small cell lung) was 21.3 µM and the TGI (HT29 colon) was 16.1 µM. The TGI (KM20L2 colon) was 19.3 µM, the TGI (NCI-H226 lung) was 23.9 µM and the TGI (SK-OV-3 ovarian) was 25.8 µM. For the same compound, the TGI (COLO 205 colon) was 20.6 µM, the TGI (OVCAR-3 ovarian) was 29.9 µM and the TGI (OVCAR-5 ovarian) was 21.4 µM. For the same compound, the TGI (LOX IMVI melanoma) was 14.8 µM, the TGI (M19-MEL melanoma) was 27.8 µM and the TGI (SN12C renal) was 22.3 µM. The TGI (SF-539 CNS) was 18.7 µM, the TGI (TK-10 renal) was 28.8 µM and the TGI (HOP-92 NSCLC) was 20.7 µM. For the same compound, the TGI (HL-60(TB) leukemia) was 16.8 µM, the TGI (IGROV1 ovarian) was 26.4 µM and the TGI (SK-MEL-28 melanoma) was 28.9 µM. For the same compound, the TGI (RXF-631 renal) was 18.4 µM and the TGI (SF-268 CNS) was 22.3 µM.
`COc1ccc(C23C(=O)c4ccccc4N2O[C@H]2C(=O)N(c4ccccc4)C(=O)[C@H]23)cc1` (stereo partly specified) showed a TGI (OVCAR-8 ovarian) of over 100 µM, a TGI (CAKI-1 renal) of over 100 µM and a TGI (HOP-18 NSCLC) of over 100 µM. For the same compound, the TGI (OVCAR-4 ovarian) was over 100 µM, the TGI (MALME-3M melanoma) was over 100 µM and the TGI (SNB-19 CNS) was over 100 µM. For the same compound, the TGI (A549 NSCLC) was over 100 µM, the TGI (NCI-H23 lung) was over 100 µM and the TGI (SK-MEL-5 melanoma) was over 100 µM. It also gave a TGI (DLD-1 colon) of over 100 µM, a TGI (DMS 273 small cell lung) of over 100 µM and a TGI (EKVX NSCLC) of over 100 µM. It also gave a TGI (A498 renal) of over 100 µM, a TGI (KM12 colon) of over 100 µM and a TGI (SNB-75 CNS) of over 100 µM. It also gave a TGI (LXFL 529 NSCLC) of over 100 µM, a TGI (ACHN renal) of over 100 µM and a TGI (M14 melanoma) of over 100 µM. It also gave a TGI (SK-MEL-2 melanoma) of over 100 µM, a TGI (XF 498 CNS) of over 100 µM and a TGI (SW-620 colon) of over 100 µM. For the same compound, the TGI (HCT-116 colon) was over 100 µM, the TGI (NCI-H460 lung) was over 100 µM and the TGI (UACC-62 melanoma) was over 100 µM. For the same compound, the TGI (RPMI-8226 leukemia) was over 100 µM, the TGI (SF-295 CNS) was over 100 µM and the TGI (MOLT-4 leukemia) was over 100 µM. It also gave a TGI (CCRF-CEM leukemia) of over 100 µM, a TGI (HCT-15 colon) of over 100 µM and a TGI (U251 CNS) of over 100 µM. It also gave a TGI (HOP-62 NSCLC) of over 100 µM, a TGI (RXF 393 renal) of over 100 µM and a TGI (786-0 renal) of over 100 µM. The TGI (SNB-78 CNS) was over 100 µM, the TGI (UO-31 renal) was over 100 µM and the TGI (K-562 leukemia) was over 100 µM. It also gave a TGI (UACC-257 melanoma) of over 100 µM, a TGI (NCI-H522 lung) of 87.3 µM and a TGI (DMS 114 small cell lung) of over 100 µM. The TGI (HT29 colon) was over 100 µM, the TGI (KM20L2 colon) was over 100 µM and the TGI (NCI-H226 lung) was over 100 µM. The TGI (HCC-2998 colon) was over 100 µM, the TGI (SK-OV-3 ovarian) was over 100 µM and the TGI (COLO 205 colon) was over 100 µM. It also gave a TGI (OVCAR-3 ovarian) of over 100 µM, a TGI (OVCAR-5 ovarian) of over 100 µM and a TGI (LOX IMVI melanoma) of over 100 µM. The TGI (M19-MEL melanoma) was over 100 µM, the TGI (SN12C renal) was over 100 µM and the TGI (SF-539 CNS) was over 100 µM. It also gave a TGI (TK-10 renal) of over 100 µM, a TGI (HOP-92 NSCLC) of over 100 µM and a TGI (HL-60(TB) leukemia) of over 100 µM. It also gave a TGI (IGROV1 ovarian) of over 100 µM, a TGI (SK-MEL-28 melanoma) of over 100 µM and a TGI (RXF-631 renal) of over 100 µM. For the same compound, the TGI (SF-268 CNS) was over 100 µM.
